Results as given in patent US20220110916A1, “Antioxidant and Use Thereof” (Bioradical Research Institute Corp., priority 2019, published 2022).

Assays:
[1] = Storage stability in pH7.4-PBS or pure water at 37° C. protected from light, residual rate by HPLC; format: physicochemical; conditions: 200 μmol/l; for Residual rate (%) After 1 week / Residual rate (%) After 2 weeks: 37° C., protected from light; for Residual rate (%) Initial concentration: initial concentration (reference 100%)
Protocol: The storage stability of edaravone, EMPO, ED2AP, and BisEp-C3 of the following formula (A) were examined. Specifically, edaravone, EMPO, ED2AP, and BisEp-C3 were dissolved in pH7.4-PBS or pure water so as to have a final concentration of 200 μmol/l to prepare dissolved solutions of these compounds. When the compounds were difficult to be dissolved, they were dissolved in an ultrasonic cleaner with warm water at 40° C.
Under the measurement conditions for HPLC described below, the initial concentration was quantified, and then each solution was stored in an oven, which was protected from light, at 37° C., and quantified under the same measurement conditions after 1 week and 2 weeks, to determine residual rate (%) with the initial concentration (100%) being a reference.
Measurement conditions for HPLC
PDA detector (Format: SPD-M20A) HPLC Assay Conditions:
Column: Atlantis dC18 5 μm (250×4.6 mm I.D.; produced by Waters)
Column temperature: 45° C.
Detection method: UV (254 nm)
Eluate A: pH3 buffer solution (adjusted to pH3 by adding phosphoric acid to 0.05M KH2PO4 aqueous solution)/methanol=90/10

[2] = Water solubility noted at synthesis; format: physicochemical; conditions: crystal obtained in Example 1
Protocol: 3.58 g of 3-methyl-1-phenyl-5-pyrazolone (hereinafter, also referred to as “edaravone”), 2.59 g of malonaldehyde dianilide hydrochloride, and 20 ml of ethanol were added to a reactor and dissolved. To the obtained solution, 2.04 g of triethylamine and 0.4 ml of water were added and stirred for 1 hour at room temperature (about 25° C., hereinafter, the same applies). After the stirring, the resultant was further reacted for 1 hour at 50° C. After discharging the obtained reaction solution to 100 ml of 1N hydrochloric acid, the mixture was sufficiently stirred and the precipitate was filtered. The resulting cake was washed with water. The cake was added to 200 ml of an aqueous sodium hydroxide solution having a 1% by weight concentration and completely dissolved by heating with stirring. Next, the dissolved solution was stirred for 3 hours after cooling to room temperature. Then, the liquid containing the obtained precipitate was filtered, and then the cake was washed with water. […] Note that the melting point of ED2AP was 249° C., which was water-soluble.
3 ml of dimethylformamide was added to a reactor and the exterior of the reactor was cooled with ice water. 1.75 g of phosphorus oxychloride was slowly dropped into the reactor (Reaction Solution A). In another reactor, 1.78 g of edaravone was dissolved in 5 ml of dimethylformamide (Reaction Solution B). Under room temperature, the reaction solution B was slowly added to the reaction solution A, and the resulting mixture was allowed to react for 1 hour with the end of addition (Reaction Solution C) being a reference. In another reactor, 1.81 g of 3-methyl-1-phenyl-5-pyrazolone was added to 8 ml of chloroform and dissolved (Reaction Solution D). Under room temperature, the reaction solution C was slowly added to the reaction solution D, followed by stirring for 20 minutes and further stirring at 70° C. for 1 hour. To the resultant, 0.2 g of water was added and stirred for another 2 hours. The obtained reaction solution was discharged into 100 ml of water and extracted with a mixed solvent of toluene/ethyl acetate=1/1 (volume ratio). After condensation of the obtained extract, column purification was performed to obtain 2.92 g of yellow crystal of the compound of the formula (10) having the following physical properties.
1.00 g of edaravone, 0.72 g of paraformaldehyde, and 20 ml of formic acid were added to a reaction flask and stirred overnight for 20 hours at 70° C. The obtained reaction solution was discharged into 80 ml of water and extracted with a mixed solvent of toluene/ethyl acetate=1/1 (volume ratio). When the extract was condensed to about two-thirds, crystals were precipitated. Further, the resultant was cooled to room temperature, and sufficiently crystallized, and then filtered. The obtained cake was washed with toluene to obtain 0.88 g of pale yellow crystal of the compound of the formula (14) having the following physical properties.
In Example 1(1), synthesis was performed in the same manner as described above except that 3-methyl-1-ethyl-5-pyrazolone was used instead of edaravone to obtain red crystal of BisEp-C3 having the following physical properties. Note that BisEp-C3 was water-soluble.
In Example 1(2), synthesis was performed in the same manner as described above except that 3-methyl-1-ethyl-5-pyrazolone was used instead of edaravone to obtain yellow crystal of BisEp-C1 having the following physical properties. Note that BisEp-C1 was water-soluble.
In Example 1(3), synthesis was performed in the same manner as described above except that 3-methyl-1-ethyl-5-pyrazolone was used instead of edaravone, then the obtained reaction solution was condensed, and the resultant was subjected to column purification to obtain colorless crystal of BisEp-C1 (H2) having the following physical properties. Note that BisEp-C1 (H2) was water-soluble.

[3] = test system: neutrophils isolated from the peripheral blood of healthy individuals; assay: Superoxide production amount of PMA-stimulated neutrophils, CLA chemiluminescence; format: cell-based, human; conditions: 0-200 μmol/l or 0-5000 μmol/l; PMA 100 ng/ml; control being 100; FIG. 2
Protocol: For examining the reactive oxygen-eliminating effect of the antioxidant of the present invention, the superoxide produced by the neutrophils when the neutrophils isolated from the peripheral blood of healthy individuals were stimulated with PMA (phorbor-12-myristate-13-acetate) was used. The superoxide production amount was measured by chemiluminescence using CLA (2-methyl-6-pjenyl-3, 7-dihydroimidazo[1,2-a]pyrazine-3-one).
First, ED2AP, BisEp-C3, edaravone, BisEp-C1, or BisEp-C1 (H2) was added to a neutrophil of 4×10^5 cells per sample so as to achieve a predetermined concentration (0, 12.5, 25, 50, 100, or 200 μmol/l, or 0, 125, 250, 500, 1250, 2500, or 5000 μmol/l) with 5 μmol of CLA, and then the cell suspension was seeded in flat-bottomed 96-well plates. The volume of the suspension was 200 μl/well, and phenol red free Ca+, Mg+ HBSS was used as the solution. In addition, the neutrophil was stimulated by adding PMA so as to achieve a concentration of 100 ng/ml. After the stimulation, a plate reader (Envision 2104 Multilabel Reader, produced by Perkin Elmer Co., Ltd.) was used to measure the chemiluminescence value over time for 30 minutes with the PMA stimulation time being a reference. The measurement interval was 30 seconds. The sum of the chemiluminescence values obtained every 30 seconds for 30 minutes was taken as the superoxide production amount. In addition, as a control, the superoxide production amount was measured in the same manner except that each compound was not added. The relative value of the superoxide production amount when each compound was added was calculated with the superoxide production amount of the control being 100.

rat neuroid cells B50 = assay: Alleviation of singlet oxygen (Rose Bengal + G-LED) cytotoxicity, Alamar Blue fluorescence; format: cell-based; conditions: 4 mmol/l; 200 nmol/l RB + G-LED 5 minutes; negative control being 100; RB control 33.17
Protocol: Edaravone, ED2AP and BisEp-C3 were examined whether they had the function of alleviating neuronopathy. Specifically, singlet oxygen was generated by combining Rose Bengal (RB), which is a sensitizer, with green light (G-LED), and the function of alleviating the cytotoxicity of the generated singlet oxygen was examined with the cellular activity being an indicator.
First, rat neuroid cells B50 were cultured in 12-well dishes at 2×10^5 cells/well (medium: RPMI-1640 medium containing 5% FCS) overnight. After the culturing, the medium of each well was replaced with HBSS (1000 μl/well; phenol red free Ca+, Mg+) containing 200 nmol/l RB and edaravone, ED2AP, or BisEp-C3 having a predetermined concentration (0, 12.5, 25, 50, or 100 μmol/l). The dish was then irradiated with G-LED for 5 minutes to generate singlet oxygen. Thereafter, the medium of each well was replaced with 1000 μl of HBSS and Alamar Blue was added. The dish was then allowed to react for about 2 hours in an incubator at 37° C. and 5% CO2. After the reaction, fluorescence intensity (excitation wavelength: λ-560 nm, fluorescence wavelength: λ-595 nm) was measured with a plate reader (infinite200, Tecan Trading AG). In this experimental system, the higher the cellular activity, the more Alamar Blue is taken up and the higher the fluorescence intensity. As a control, fluorescence intensity was measured in the same manner except that sodium azide (Azide, NaN3) was added instead of the compounds so as to achieve a concentration of 4 mmol/l. As a negative control (NC), fluorescence intensity was measured in the same manner except that RB was not added. The relative value of the fluorescence intensity in the sample to which each compound was added was calculated with the fluorescence intensity of the negative control being 100.

CCN1N=C(C)CC1=O [EMPO, reference compound]
Residual rate (%) After 1 week ([1]; Pure water): 6.3%
Residual rate (%) After 2 weeks ([1]; Pure water): 1.4%
Residual rate (%) Initial concentration ([1]; Pure water): 100%
Residual rate (%) After 1 week ([1]; pH 7.4-PBS): 0.0%
Residual rate (%) After 2 weeks ([1]; pH 7.4-PBS): 0.0%
Residual rate (%) Initial concentration ([1]; pH 7.4-PBS): 100%

Cc1nn(-c2ccccc2)c(O)c1Cc1c(C)nn(-c2ccccc2)c1O [formula (14), 4,4′-methylenebis[3-methyl-1-phenyl-1H-pyrazol-5-ol]]
solubility in water [2]: poorly soluble in water

CCN1N=C(C)/C(=C/c2c(C)nn(CC)c2O)C1=O [BisEp-C1]
solubility in water [2]: water-soluble
relative value of the superoxide production amount [3]: suppressed the superoxide production amount in a concentration-dependent manner

CC1=NN(c2ccccc2)C(=O)/C1=C\c1c(C)nn(-c2ccccc2)c1O [formula (10), 2,4-dihydro-4-[(5-hydroxy-3-methyl-1-phenyl-1H-pyrazol-4-yl)methylene]-5-methyl-2-phenyl-3H-pyrazol-3-one]
solubility in water [2]: poorly soluble in water

[N-]=[N+]=[N-] [sodium azide, reference compound]
relative value of the fluorescence intensity (rat neuroid cells B50): 80.81

CCn1nc(C)c(Cc2c(C)nn(CC)c2O)c1O [BisEp-C1 (H2), 4,4′-methylenebis[1-ethyl-3-methyl-1H-pyrazol-5-ol]]
solubility in water [2]: water-soluble
relative value of the superoxide production amount [3]: suppressed the superoxide production amount in a concentration-dependent manner
